For experiment [1], the system named is HEK 293T transfected with plasmids containing TDP-43 Q331K mutation. Description: HEK/TDP Survival assay (Cell-Titer-Glo, 48 hrs, maximal effect of rescue). The settings on record: Homo sapiens, HEK 293T with TDP-43 Q331K, (n) in brackets. The format is cell-based. As for the experimental part:
HEK/TDP Survival assay: Immortalized human embryonic kidney 293T (HEK 293T) were transfected with plasmids containing TDP-43 Q331K mutation, resulting in an increase in cell death that is biologically relevant to ALS patients. Cell death is measured as reductions in the amount of ATP, an indicator of metabolically active cells, that is quantified by a luminescence Cell-Titer-Glo® (CTG) reagent. Compounds are evaluated in this model for changes in CTG compared to a no treatment group. Increased signal indicates improved survival (rescue) and decreased signal indicates decreased survival.
Cell rescue was measured in a 96-well format with eight different concentrations of the test compound over 48 hours (hrs) with 6 replicates. The Promega Cell-Titer-Glo® Luminescent Cell Viability Assay was used to quantify ATP, an indicator of metabolically active cells (see protocol: https://www.promega.com/-/media/files/resources/protocols/technical-manuals/101/celltiterglo-2-0-assay-protocol.pdf?la=en). The luminescence signal was detected using the PerkinElmer EnVision or Molecular Devices SpectraMax.
The effect of a compound at a given dose on cell viability was determined using a three step procedure. First, Hedge's g for the Cell Titer-Glo luminescence values using six untreated wells on every plate as a control was calculated. […] Finally, values from all compound-dose pairs were corrected for multiple hypothesis testing using the Empirical Bayes framework of Stephens, M. (False discovery rates: a new deal, Biostatistics, 18 [2], 2017, 275-294) yielding credible intervals for the measured effect and associated s values.
Briefly, this method computes a local false sign rate for each experiment. Analogous to the local false discovery rate of Efron, B. (Size, power and false discovery rates, Ann. Statist. 35 [4], 2007, 1351-1377) this value measures the confidence in the sign of each effect (rather than confidence in each effect being non-zero). The s values reported in the previous figures are the expected fraction of errors if estimating the sign of all effects with greater absolute local false sign rate, defined in analogy to the q value of Storey, JD (The positive false discovery rate: a Bayesian interpretation and the q-value, Ann. Statist. 31 [6] 2003, 2013-2035).
Drugs that yielded signed log s values greater than 3 were considered hits. This threshold was determined by a separate calibration experiment in which Cell Titer-Glo® was measured in blank plates consisting of untreated cells to assess the noise inherent in the assay. Data are presented as the maximal effect of rescue obtained from the dose-response curve.

Experiment [2] addresses T1, Full length human recombinant PIKFYVE (Homo sapiens, UniProt Q9Y2I7).
T1 construct: Full length human recombinant PIKFYVE; purchased Carna Biosciences (Kobe, Japan); host or cells: baculovirus expression system
As to the kind of experiment: Inhibition of PIKfyve (microfluidic electrophoresis kinase assay, PI3P/PS substrate). The format is biochemical. The settings on record: 12 concentrations. The method, boiled down:
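GST-tagged full-length human PIKFYVE (baculovirus; 2 nM) with fluorescent PI3P/PS (1 μM PI3P) and […] in pH 7.5 HEPES with Mg2+/Mn2+, 1% DMSO, 3 h at room temperature. PI(3,5)P product/substrate ratio read by microfluidic electrophoresis; 12-point % inhibition versus no-enzyme and DMSO controls.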

Structures are written as SMILES.

A word on the EC50: it is the concentration giving half of the maximal effect. Read a high EC50 as lower potency in that assay. The IC50 is the concentration that gives 50% inhibition.

T1 sequence (Q9Y2I7 whole entry): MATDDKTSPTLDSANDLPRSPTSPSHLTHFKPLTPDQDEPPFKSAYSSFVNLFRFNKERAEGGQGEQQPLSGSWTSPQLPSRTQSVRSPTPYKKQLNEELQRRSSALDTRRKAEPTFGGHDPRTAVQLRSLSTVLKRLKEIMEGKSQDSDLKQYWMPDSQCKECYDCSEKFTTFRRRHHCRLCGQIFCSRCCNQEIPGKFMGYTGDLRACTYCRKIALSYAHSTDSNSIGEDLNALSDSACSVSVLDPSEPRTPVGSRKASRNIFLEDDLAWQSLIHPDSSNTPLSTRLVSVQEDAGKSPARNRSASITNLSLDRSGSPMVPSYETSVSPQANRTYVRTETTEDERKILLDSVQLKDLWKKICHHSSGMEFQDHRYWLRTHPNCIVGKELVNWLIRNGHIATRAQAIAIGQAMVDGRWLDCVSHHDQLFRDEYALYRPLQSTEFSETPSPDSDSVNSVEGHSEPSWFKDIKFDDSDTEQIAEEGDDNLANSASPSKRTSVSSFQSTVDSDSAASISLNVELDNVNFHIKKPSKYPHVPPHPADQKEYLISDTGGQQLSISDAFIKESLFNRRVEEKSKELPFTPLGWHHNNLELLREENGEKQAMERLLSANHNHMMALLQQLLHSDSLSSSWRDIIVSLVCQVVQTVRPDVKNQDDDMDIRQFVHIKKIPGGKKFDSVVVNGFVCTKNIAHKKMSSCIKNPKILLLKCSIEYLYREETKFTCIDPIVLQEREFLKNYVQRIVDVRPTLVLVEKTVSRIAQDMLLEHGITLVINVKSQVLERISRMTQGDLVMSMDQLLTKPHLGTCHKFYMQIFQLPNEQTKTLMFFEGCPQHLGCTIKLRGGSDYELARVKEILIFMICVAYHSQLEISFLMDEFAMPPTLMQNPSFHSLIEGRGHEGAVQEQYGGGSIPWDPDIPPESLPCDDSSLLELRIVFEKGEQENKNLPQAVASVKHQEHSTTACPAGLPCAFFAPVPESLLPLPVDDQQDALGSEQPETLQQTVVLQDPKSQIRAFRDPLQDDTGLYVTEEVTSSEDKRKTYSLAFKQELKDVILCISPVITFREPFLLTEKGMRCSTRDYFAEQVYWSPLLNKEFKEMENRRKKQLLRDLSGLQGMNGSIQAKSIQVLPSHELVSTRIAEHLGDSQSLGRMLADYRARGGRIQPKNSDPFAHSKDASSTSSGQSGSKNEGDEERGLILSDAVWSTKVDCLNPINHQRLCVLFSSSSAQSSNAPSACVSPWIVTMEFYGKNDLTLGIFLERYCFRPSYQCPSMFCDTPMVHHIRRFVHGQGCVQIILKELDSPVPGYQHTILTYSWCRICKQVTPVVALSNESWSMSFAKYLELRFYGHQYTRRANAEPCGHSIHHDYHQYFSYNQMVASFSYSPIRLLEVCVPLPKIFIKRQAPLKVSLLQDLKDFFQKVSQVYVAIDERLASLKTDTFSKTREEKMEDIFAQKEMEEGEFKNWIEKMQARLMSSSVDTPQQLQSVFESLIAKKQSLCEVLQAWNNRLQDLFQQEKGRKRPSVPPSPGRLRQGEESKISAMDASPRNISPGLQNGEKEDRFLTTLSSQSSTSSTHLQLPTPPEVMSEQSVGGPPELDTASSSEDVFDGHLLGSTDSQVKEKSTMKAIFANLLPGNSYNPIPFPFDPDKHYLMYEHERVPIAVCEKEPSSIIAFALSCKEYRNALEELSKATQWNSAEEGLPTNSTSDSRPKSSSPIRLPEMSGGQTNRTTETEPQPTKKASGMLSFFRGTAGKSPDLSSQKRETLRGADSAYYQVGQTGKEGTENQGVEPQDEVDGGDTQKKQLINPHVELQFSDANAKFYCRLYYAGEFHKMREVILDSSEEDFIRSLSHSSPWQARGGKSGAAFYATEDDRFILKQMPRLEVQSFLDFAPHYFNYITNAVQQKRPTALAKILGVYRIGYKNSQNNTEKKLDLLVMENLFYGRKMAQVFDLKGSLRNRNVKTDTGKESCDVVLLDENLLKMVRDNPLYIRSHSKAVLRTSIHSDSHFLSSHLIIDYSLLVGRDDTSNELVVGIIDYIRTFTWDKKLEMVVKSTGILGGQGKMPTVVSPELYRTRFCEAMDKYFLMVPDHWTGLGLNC

With `Cc1cccc(-c2cnn(-c3nc(N4CCOCC4)c4oc(-c5cc(C)nn5CCN(C)C)cc4n3)c2)c1` [Compound 145, N,N-dimethyl-2-[3-methyl-5-[4-morpholino-2-[4-(m-tolyl)pyrazol-1-yl]furo[3,2-d]pyrimidin-6-yl]pyrazol-1-yl]ethanamine], the EC50 in experiment [1] came out at 27 nM. Also, the IC50 in experiment [2] is 18.6 nM.
Consider `Cc1cccc(-c2ccn(-c3nc(N4CCOCC4)c4oc(C(=O)NCC5CC5)cc4n3)n2)c1` [Compound 97, N-(cyclopropylmethy 1)-4-morpholino-2-(3-(m-tolyl)-1H-pyrazol-1-yl)furo[3,2-d]pyrimidine-6-carboxamide], for which the EC50 in experiment [1] worked out at 16.5 nM. In experiment [2], the IC50 was found to be 17 nM.
On the same counts, the results for `Cc1cccc(-c2ccn(-c3nc(N4CCOCC4)c4oc(-c5ccccn5)c(C(F)(F)F)c4n3)n2)c1` [Compound 112, 4-morpholino-6-(pyridin-2-yl)-2-(3-(m-tolyl)-1H-pyrazol-1-yl)-7-(trifluoromethyl) furo[3,2-d]pyrimidine] are 153 nM and above 10000 nM.
Taken in the same sequence, the figures for `Cc1cccc(-c2cnn(-c3nc(N4CCOCC4)c4oc(C(=O)NC5CCN(C)C5)cc4n3)c2)c1` (stereo not drawn) [Compound 124, N-(1-methylpyrrolidin-3-yl)-4-morpholino-2-(4-(m-tolyl)-1H-pyrazol-1-yl)furo[3,2-d]pyrimidine-6-carboxamide] were 48 nM and 4.7 nM.
`Cc1cccc(-c2ccn(-c3nc(N4CCOCC4)c4oc(C(=O)NCC5COC5)cc4n3)n2)c1` [Compound 105, 4-morpholino-N-(oxetan-3-ylmethyl)-2-(3-(m-tolyl)-1H-pyrazol-1-yl)furo[3,2-d]pyrimidine-6-carboxamide] yielded an EC50 in experiment [1] of 100 nM. The IC50 in experiment [2] was determined as 32.3 nM.
On the same counts, the results for `Cc1cccc(-c2cnn(-c3nc(N4CCOCC4)c4oc(C(=O)NCCCN(C)C)cc4n3)c2)c1` [Compound 111, N-(3-(dimethylamino)propyl)-4-morpholino-2-(4-(m-tolyl)-1H-pyrazol-1-yl)furo[3,2-d]pyrimidine-6-carboxamide] are 35.5 nM and 3.1 nM.
On the same counts, the results for `COCCNC(=O)c1cc2nc(-n3cc(-c4cccc(C)c4)cn3)nc(N3CCOCC3)c2o1` [Compound 117, N-(2-methoxyethyl)-4-morpholino-2-(4-(m-tolyl)-1H-pyrazol-1-yl)fur[3,2-d]pyrimidine-6-carboxamide] are 74.3 nM and 37.3 nM.
On the same counts, the results for `Cc1cccc(-c2cnn(-c3nc(N4CCOCC4)c4oc(C(=O)NCC5CC5)cc4n3)c2)c1` [Compound 115, N-(cyclopropylmethyl)-4-morpholino-2-(4-(m-tolyl)-1H-pyrazol-1-yl)furo[3,2-d]pyrimidine-6-carboxamide] are 35.7 nM and 3.1 nM.
Take `Cc1cccc(-c2ccn(-c3nc(N4CCOCC4)c4oc(C(=O)NC5COC5)cc4n3)n2)c1` [Compound 104, 4-morpholino-N-(oxetan-3-yl)-2-(3-(m-tolyl)-1H-pyrazol-1-yl)furo[3,2-d]pyrimidine-6-carboxamide]: in experiment [1], a half-maximal effect (EC50) was put at 98 nM. Also, the IC50 in experiment [2] stood at 41.2 nM.
The compound `[2H]C1([2H])OC([2H])([2H])C([2H])([2H])N(c2nc(-n3cc(-c4cccc(C)c4)cn3)nc3cc(C(=O)NCC)oc23)C1([2H])[2H]` [Compound 131, N-ethyl-4-morpholino(dg)-2-(4-(m-tolyl)-1H-pyrazol-1-yl)furo[3,2-d]pyrimidine-6-carboxamide] returned an EC50 in experiment [1] of 17 nM. For the same compound, in experiment [2], the IC50 was 18 nM.
On the same counts, the results for `Cc1cccc(-c2cnn(-c3nc(N4CCOCC4)c4oc(C(=O)NC5CC5)c(C)c4n3)c2)c1` [Compound 127, N-cyclopropyl-7-methyl-4-morpholino-2-(4-(m-tolyl)-1H-pyrazol-1-yl)furo[3,2-d]pyrimidine-6-carboxamide] are 48 nM and 34 nM.
Taken in the same sequence, the figures for `Cc1cccc(-c2ccn(-c3nc(N4CCOCC4)c4oc(C(=O)NCCCCN(C)C)cc4n3)n2)c1` [Compound 108, N-(4-(dimethylamino)butyl)-4-morpholino-2-(3-(m-tolyl)-1H-pyrazol-1-yl)furo[3,2-d]pyrimidine-6-carboxamide] were 53 nM and 23.3 nM.
On the same counts, the results for `Cc1cccc(-c2cnn(-c3nc(N4CCOCC4)c4oc(C(=O)NC5CCN(C)CC5)cc4n3)c2)c1` [Compound 121, N-(1-methylpiperidin-4-yl)-4-morpholino-2-(4-(m-tolyl)-1H-pyrazol-1-yl)furo[3,2-d]pyrimidine-6-carboxamide] are 21.5 nM and 1.2 nM.
In experiment [1], `c1ccc(-c2cc(Nc3nc(N4CCOCC4)c4oc(-c5ccncc5)cc4n3)no2)cc1` [Compound 43, 4-morpholino-N-(5-phenylisoxazol-3-yl)-6-(pyridin-4-yl)furo[3,2-d]pyrimidin-2-amine] came in with an EC50 of 47.5 nM. The IC50 in experiment [2] worked out at 8 nM.
Taken in the same sequence, the figures for `Cc1cccc(-c2cnn(-c3nc(N4CCOCC4)c4oc(C(=O)NCCCS(=O)(=O)N(C)C)cc4n3)c2)c1` [Compound 120, N-(3-(N,N-dimethylsulfamoyl)propyl)-4-morpholino-2-(4-(m-tolyl)-1H-pyrazol-1-yl)furo[3,2-d]pyrimidine-6-carboxamide] were 121 nM and 16.2 nM.
For `Cc1cccc(-c2cnn(-c3nc(N4CCOCC4)c4oc(-c5cc(C)n[nH]5)cc4n3)c2)c1` [Compound 144, 6-(3-methyl-1H-pyrazol-5-yl)-4-morpholino-2-(4-(m-tolyl)-1H-pyrazol-1-yl)furo[3,2-d]pyrimidine], the 50% effective concentration (EC50) in experiment [1] worked out at 13 nM. Also, the IC50 in experiment [2] stood at 0.3 nM.
On the same counts, the results for `Cc1cccc(-c2cnn(-c3nc(N4CCOCC4)c4oc(C(=O)N[C@@H](C)C5CC5)cc4n3)c2)c1` [Compound 113, (S)-N-(1-cyclopropylethyl)-4-morpholino-2-(4-(m-tolyl)-1H-pyrazol-1-yl)furo[3,2-d]pyrimidine-6-carboxamide] are 16 nM and 0.2 nM.
With `Cc1cccc(-c2ccn(-c3nc(N4CCOCC4)c4oc(C(=O)NCCCN(C)C)cc4n3)n2)c1` [Compound 109, N-(3-(dimethylamino)propyl)-4-morpholino-2-(3-(m-tolyl)-1H-pyrazol-1-yl)furo[3,2-d]pyrimidine-6-carboxamide], the EC50 in experiment [1] came out at 46.5 nM. Besides, the IC50 in experiment [2] was 11.7 nM.
On the same counts, the results for `Cc1cccc(-c2cnn(-c3nc(N4CCOCC4)c4oc(C(=O)NC5CCCN(C)C5)cc4n3)c2)c1` (stereo not drawn) [Compound 123, N-(1-methylpiperidin-3-yl)-4-morpholino-2-(4-(m-tolyl)-1H-pyrazol-1-yl)furo[3,2-d]pyrimidine-6-carboxamide] are 28.5 nM and 3.3 nM.
In turn, `CCNC(=O)c1cc2nc(-n3ccc(-c4cccc(C)c4)n3)nc(N3CCOCC3)c2o1` [Compound 95, N-ethyl-4-morpholino-2-(3-(m-tolyl)-1H-pyrazol-1-yl)furo[3,2-d]pyrimidine-6-carboxamide] registered an EC50 in experiment [1] of 94 nM. The IC50 in experiment [2] turned out to be 11.8 nM.
On the same counts, the results for `Cc1cccc(-c2ccn(-c3nc(N4CCOCC4)c4oc(C(=O)NC5CC5)cc4n3)n2)c1` [Compound 96, N-cyclopropyl-4-morpholino-2-(3-(m-tolyl)-1H-pyrazol-1-yl)furo[3,2-d]pyrimidine-6-carboxamide] are 17.5 nM and 15 nM.

Values taken from patent US20230146395A1, “Substituted Pyrimidines and Uses Thereof” (Verge Analytics, Inc., priority 2020, published 2023).
